Laboratory results: ChEMBL document CHEMBL1147106, “Antistaphylococcal activity of DX-619 alone and in combination with vancomycin, teicoplanin, and linezolid assessed by time-kill synergy testing” (2007)
≈ marks a conversion by molar mass, not a printed value.

How the values were obtained:
Assay type in all cases: functional
[1] = system: Staphylococcus aureus; experiment: Antistaphylococcal activity against vancomycin-intermediate Staphylococcus aureus 555
[2] = system: Staphylococcus aureus; experiment: Antistaphylococcal activity against quinolone and methicillin-resistant Staphylococcus aureus
[3] = system: Staphylococcus aureus; experiment: Antistaphylococcal activity against quinolone-resistant Staphylococcus aureus 241
[4] = system: Staphylococcus aureus; experiment: Antistaphylococcal activity against quinolone-resistant Staphylococcus aureus 242
[5] = system: Staphylococcus aureus; experiment: Antistaphylococcal activity against quinolone-susceptible methicillin-resistant Staphylococcus aureus
[6] = system: Staphylococcus aureus; experiment: Antistaphylococcal activity against vancomycin-intermediate Staphylococcus aureus 507
[7] = system: Staphylococcus aureus; experiment: Antistaphylococcal activity against vancomycin-resistant Staphylococcus aureus 512
[8] = system: Staphylococcus aureus; experiment: Antistaphylococcal activity against quinolone-resistant Staphylococcus aureus 508
[9] = system: Staphylococcus aureus; experiment: Antistaphylococcal activity against methicillin-sensitive Staphylococcus aureus
[10] = system: Staphylococcus aureus; experiment: Antistaphylococcal activity against vancomycin-intermediate Staphylococcus aureus
[11] = system: Staphylococcus aureus; experiment: Antistaphylococcal activity against vancomycin-intermediate Staphylococcus aureus 508
[12] = system: Staphylococcus aureus; experiment: Antistaphylococcal activity against quinolone-resistant Staphylococcus aureus 261
[13] = system: Staphylococcus aureus; experiment: Antistaphylococcal activity against vancomycin-resistant Staphylococcus aureus 510
[14] = system: Staphylococcus aureus; experiment: Antistaphylococcal activity against vancomycin-intermediate Staphylococcus aureus 506
[15] = system: Staphylococcus aureus; experiment: Antistaphylococcal activity against vancomycin-intermediate Staphylococcus aureus 505
[16] = system: Staphylococcus aureus; experiment: Antistaphylococcal activity against vancomycin-resistant Staphylococcus aureus 509
[17] = system: Staphylococcus aureus; experiment: Antistaphylococcal activity against vancomycin-intermediate Staphylococcus aureus 504
[18] = system: Staphylococcus aureus; experiment: Antistaphylococcal activity against vancomycin-resistant Staphylococcus aureus

Row | Structure (SMILES) | MIC [1] [µg/mL] | MIC [2] [µg/mL] | MIC [3] [µg/mL] | MIC [4] [µg/mL] | MIC [5] [µg/mL] | MIC [6] [µg/mL] | MIC [7] [µg/mL] | MIC [8] [µg/mL] | MIC [9] [µg/mL] | MIC [10] [µg/mL] | MIC [11] [µg/mL] | MIC [12] [µg/mL] | MIC [13] [µg/mL] | MIC [14] [µg/mL] | MIC [15] [µg/mL] | MIC [16] [µg/mL] | MIC [17] [µg/mL] | MIC [18] [µg/mL]
1 | COc1c(N2CC[C@@H](C3(N)CC3)C2)ccc2c(=O)c(C(=O)O)cn([C@@H]3C[C@@H]3F)c12 | 0.06 (≈ 0.149 µM) | 0.06 (≈ 0.149 µM) | 0.004 (≈ 0.00996 µM) | 0.004 (≈ 0.00996 µM) | 0.008 (≈ 0.0199 µM) | 0.06 (≈ 0.149 µM) | 0.06 (≈ 0.149 µM) | 0.004 (≈ 0.00996 µM) | 0.004 (≈ 0.00996 µM) | 0.016 (≈ 0.0399 µM) | 0.004 (≈ 0.00996 µM) | 0.004 (≈ 0.00996 µM) | 0.06 (≈ 0.149 µM) | 0.06 (≈ 0.149 µM) | 0.004 (≈ 0.00996 µM) | 0.06 (≈ 0.149 µM) | 0.06 (≈ 0.149 µM) | 0.125 (≈ 0.311 µM)
2 | C[C@H]1COc2c(N3CCN(C)CC3)c(F)cc3c(=O)c(C(=O)O)cn1c23.C[C@H]1COc2c(N3CCN(C)CC3)c(F)cc3c(=O)c(C(=O)O)cn1c23.O [LEVOFLOXACIN] | – | ≥ 4 | – | – | – | – | – | – | – | – | – | – | – | – | – | – | – | –
3 | CN[C@H](CC(C)C)C(=O)N[C@H]1C(=O)N[C@@H](CC(N)=O)C(=O)N[C@H]2C(=O)N[C@H]3C(=O)N[C@H](C(=O)N[C@H](C(=O)O)c4cc(O)cc(O)c4-c4cc3ccc4O)[C@H](O)c3ccc(c(Cl)c3)Oc3cc2cc(c3O[C@@H]2O[C@H](CO)[C@@H](O)[C@H](O)[C@H]2O[C@H]2C[C@](C)(N)[C@H](O)[C@H](C)O2)Oc2ccc(cc2Cl)[C@H]1O [VANCOMYCIN] | – | – | – | – | – | – | – | – | – | – | – | – | 0.05 (≈ 0.0345 µM) | – | – | – | – | 32 (≈ 22.1 µM)
